Assay results reported in patent US11345694B2, “Antibacterial compounds” (DISCUVA LTD., priority 2017, dated 2022).
Converted amounts (≈) assume the structure as drawn.

Key:
[1] = test system: Staphylococcus aureus ATCC 35556 (SA); experiment: MIC broth microdilution; format: cell-based; details: ATCC35556
Outline: (§1)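 CLSI M07 broth microdilution; cation-adjusted MH broth; 2-fold series, final 0.39-200 μM, ≤2% DMSO final; 37° C, ambient atmosphere, 20-24 h. MIC = lowest conc. with no growth.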

[2] = test system: Enterobacter cloacae DSM 30054 (Ed); experiment: MIC broth microdilution; format: cell-based; details: DSM30054
Outline: (§2)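 CLSI M07-A10 broth microdilution against planktonic cells, two-fold serial compound dilutions spanning 0.39-200 μM final, DMSO at most 2% final. Cation-adjusted Müller-Hinton broth, 37° C, ambient air; MIC taken as lowest concentration inhibiting growth after 20-24 hour incubation.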

[3] = test system: Pseudomonas aeruginosa ATCC 33359 (PA); experiment: MIC broth microdilution; format: cell-based; details: ATCC33359
Outline: as §1

[4] = test system: Salmonella typhimurium XNAA5 (St); experiment: MIC broth microdilution; format: cell-based; details: Salmonella enterica
Outline: as §1

[5] = test system: Serratia marcescens SL1344 (Sm); experiment: MIC broth microdilution; format: cell-based
Outline: as §1

[6] = test system: Escherichia coli K12 (EC); experiment: MIC broth microdilution; format: cell-based
Outline: as §1

[7] = test system: Klebsiella pneumoniae ATCC 10031 (KP2); experiment: MIC broth microdilution; format: cell-based; details: ATCC10031
Outline: as §2

[8] = test system: Acinetobacter baumannii ATCC 17978 (AB); experiment: MIC broth microdilution; format: cell-based; details: ATCC17978
Outline: as §1

[9] = test system: human hepatocarcinoma cell line ATCC HB-8065 (HepG2); experiment: Human cell viability (CellTiter-Glo); format: cell-based; details: Homo sapiens; HepG2 cells, 24 h incubation, CellTiter-Glo luminescence, 0.2-100 μM; read-out: IC50 values against the HepG2 cell line
Outline: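 HepG2 cells were seeded at 20,000 cells/well in MEM with 10% FBS and, after 24 h, exposed for 24 h at 37° C. to two-fold dilutions (final 0.2-100 μM) in MEM with 1% FBS and 1% DMSO. Viability was read by CellTiter-Glo luminescence, with IC50 from a 4-parameter logistic fit.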

[10] = test system: K. pneumoniae H154600588 (KP8); experiment: MIC broth microdilution; format: cell-based, Klebsiella pneumoniae; details: Klebsiella pneumoniae
Outline: as §2

[11] = test system: K. pneumoniae H154300688 (KP9); experiment: MIC broth microdilution; format: cell-based, Klebsiella pneumoniae; details: Klebsiella pneumoniae
Outline: as §2

[12] = test system: K. pneumoniae ATCC 700603 (KP3); experiment: MIC broth microdilution; format: cell-based, Klebsiella pneumoniae; details: Klebsiella pneumoniae, ATCC700603
Outline: as §2

[13] = test system: K. pneumoniae H154020667 (KP6); experiment: MIC broth microdilution; format: cell-based, Klebsiella pneumoniae; details: Klebsiella pneumoniae
Outline: as §2

[14] = test system: K. pneumoniae H151440671 (KP10); experiment: MIC broth microdilution; format: cell-based, Klebsiella pneumoniae; details: Klebsiella pneumoniae
Outline: as §2

[15] = test system: K. pneumoniae NCTC 13438 (KP1); experiment: MIC broth microdilution; format: cell-based, Klebsiella pneumoniae; details: Klebsiella pneumoniae, NCTC13438
Outline: as §2

[16] = test system: K. pneumoniae H154680676 (KP5); experiment: MIC broth microdilution; format: cell-based, Klebsiella pneumoniae; details: Klebsiella pneumoniae
Outline: as §2

[17] = test system: K. pneumoniae H154640784 (KP7); experiment: MIC broth microdilution; format: cell-based, Klebsiella pneumoniae; details: Klebsiella pneumoniae
Outline: as §2

[18] = test system: E. coli NCTC 13441 (UPEC); experiment: MIC broth microdilution; format: cell-based, Escherichia coli; details: Escherichia coli, NCTC13441
Outline: as §1

Cc1cc(-c2[nH]c(N)nc2-c2ccc3c(c2)OCCO3)ccn1 [Example 23, 4-(2,3-Dihydrobenzo[b][1,4]dioxin-6-yl)-5-(2-methylpyridin-4-yl)-1H-imidazol-2-amine]
MIC [1]: > 100 µM
MIC [2]: ≤ 1 µM
MIC [3]: > 100 µM
MIC [4]: ≤ 1 µM
MIC [5]: 1 to 10 µM (≈ 0.308 to 3.08 µg/mL)
MIC [6]: ≤ 1 µM
MIC [7]: ≤ 1 µM
MIC [8]: > 100 µM
IC50 [9]: > 100 µM
MIC [10]: 1 to 10 µM (≈ 0.308 to 3.08 µg/mL)
MIC [11]: ≤ 1 µM
MIC [12]: 1 to 10 µM (≈ 0.308 to 3.08 µg/mL)
MIC [13]: ≤ 1 µM
MIC [14]: ≤ 1 µM
MIC [15]: 1 to 10 µM (≈ 0.308 to 3.08 µg/mL)
MIC [16]: ≤ 1 µM
MIC [17]: 1 to 10 µM (≈ 0.308 to 3.08 µg/mL)
MIC [18]: ≤ 1 µM

Cc1cc(-c2[nH]c(N)nc2-c2ccc3c(c2)NCCO3)ccn1 [Example 27, 4-(3,4-Dihydro-2H-benzo[b][1,4]oxazin-6-yl)-5-(2-methylpyridin-4-yl)-1H-imidazol-2-amine]
MIC [1]: > 100 µM
MIC [2]: ≤ 1 µM
MIC [3]: > 100 µM
MIC [4]: ≤ 1 µM
MIC [5]: 1 to 10 µM (≈ 0.307 to 3.07 µg/mL)
MIC [6]: ≤ 1 µM
MIC [7]: ≤ 1 µM
MIC [8]: > 100 µM
IC50 [9]: > 100 µM
MIC [10]: 1 to 10 µM (≈ 0.307 to 3.07 µg/mL)
MIC [11]: 1 to 10 µM (≈ 0.307 to 3.07 µg/mL)
MIC [12]: 1 to 10 µM (≈ 0.307 to 3.07 µg/mL)
MIC [13]: ≤ 1 µM
MIC [14]: ≤ 1 µM
MIC [15]: 1 to 10 µM (≈ 0.307 to 3.07 µg/mL)
MIC [16]: ≤ 1 µM
MIC [17]: 1 to 10 µM (≈ 0.307 to 3.07 µg/mL)
MIC [18]: ≤ 1 µM

Nc1cc(-c2[nH]c(N)nc2-c2ccc(OCc3ccc(F)cc3)cc2)ccn1 [Example 7, 4-(2-Amino-4-(4-((4-fluorobenzyl)oxy)phenyl)-1H-imidazol-5-yl)pyridin-2-amine]
MIC [1]: 10 to 100 µM (≈ 3.75 to 37.5 µg/mL)
MIC [2]: ≤ 1 µM
MIC [3]: > 100 µM
MIC [4]: ≤ 1 µM
MIC [5]: ≤ 1 µM
MIC [6]: ≤ 1 µM
MIC [7]: ≤ 1 µM
MIC [8]: > 100 µM
IC50 [9]: 25 to 100 µM
MIC [10]: 1 to 10 µM (≈ 0.375 to 3.75 µg/mL)
MIC [11]: ≤ 1 µM
MIC [12]: 1 to 10 µM (≈ 0.375 to 3.75 µg/mL)
MIC [13]: ≤ 1 µM
MIC [14]: ≤ 1 µM
MIC [15]: 1 to 10 µM (≈ 0.375 to 3.75 µg/mL)
MIC [16]: ≤ 1 µM
MIC [17]: 1 to 10 µM (≈ 0.375 to 3.75 µg/mL)
MIC [18]: ≤ 1 µM

Cc1cc(-c2[nH]c(N)nc2-c2ccc(OCc3ccc(F)cc3)cc2)ccn1 [Example 19, 4-(4-((4-Fluorobenzyl)oxy)phenyl)-5-(2-methylpyridin-4-yl)-1H-imidazol-2-amine]
MIC [1]: 10 to 100 µM (≈ 3.74 to 37.4 µg/mL)
MIC [2]: ≤ 1 µM
MIC [3]: > 100 µM
MIC [4]: ≤ 1 µM
MIC [5]: ≤ 1 µM
MIC [6]: ≤ 1 µM
MIC [7]: ≤ 1 µM
MIC [8]: 10 to 100 µM (≈ 3.74 to 37.4 µg/mL)
IC50 [9]: 25 to 100 µM
MIC [10]: 1 to 10 µM (≈ 0.374 to 3.74 µg/mL)
MIC [11]: ≤ 1 µM
MIC [12]: ≤ 1 µM
MIC [13]: ≤ 1 µM
MIC [14]: ≤ 1 µM
MIC [15]: ≤ 1 µM
MIC [16]: ≤ 1 µM
MIC [17]: 1 to 10 µM (≈ 0.374 to 3.74 µg/mL)
MIC [18]: ≤ 1 µM

CNc1cc(-c2[nH]c(N)nc2-c2ccc3c(c2)CCO3)ccn1 [Example 9, 4-(2-Amino-4-(2,3-dihydrobenzofuran-5-yl)-1H-imidazol-5-yl)-N-methylpyridin-2-amine]
MIC [1]: > 100 µM
MIC [2]: ≤ 1 µM
MIC [3]: > 100 µM
MIC [4]: ≤ 1 µM
MIC [5]: 10 to 100 µM (≈ 3.07 to 30.7 µg/mL)
MIC [6]: ≤ 1 µM
MIC [7]: ≤ 1 µM
MIC [8]: > 100 µM
IC50 [9]: > 100 µM
MIC [10]: 1 to 10 µM (≈ 0.307 to 3.07 µg/mL)
MIC [11]: 1 to 10 µM (≈ 0.307 to 3.07 µg/mL)
MIC [12]: 1 to 10 µM (≈ 0.307 to 3.07 µg/mL)
MIC [13]: ≤ 1 µM
MIC [14]: ≤ 1 µM
MIC [15]: 1 to 10 µM (≈ 0.307 to 3.07 µg/mL)
MIC [16]: 1 to 10 µM (≈ 0.307 to 3.07 µg/mL)
MIC [17]: 1 to 10 µM (≈ 0.307 to 3.07 µg/mL)
MIC [18]: ≤ 1 µM
